According to patent US20100221197A1, “ANTIMICROBIAL AGENT AND EXTERNAL PREPARATION FOR SKIN CONTAINING THE SAME” (TAIYO CORPORATION, priority 2007, published 2010):
In brackets after ≈: the same amount, converted by molar mass. Where two headings read alike, the source gives them in different places.

What was measured:
[1] = tested on: Corynebacterium xerosis (JCM 1971); assay: Antimicrobial test, growth inhibition minimum concentration; type: cell-based; details: C. xerosis(JCM1971)
Description: (§1) 0.5 mL of a previously sterilized medium (brand name: Brain Heart Infusion Liquid Medium supplied by Nihon Pharmaceutical Co., Ltd.) was added into a 96-well deep type microplate, and 0.5 mL of ricinoleic acid monoglyceride or diglycerine ricinoleic acid monoester of the present invention (synthesized in “1. Synthesis Example of ricinoleic acid monoglyceride” and “2. Synthesis Example of diglycerine ricinoleic acid monoester,” respectively) was added thereto and serially prepared so that the final concentration in the medium was 3 ppm, 6 ppm, 12 ppm, 25 ppm, 50 ppm, 100 ppm, 200 ppm and 400 ppm. 0.1 mL of each cultured bacterial medium of Corynebacterium xerosis (JCM 1971) or Staphylococcus aureus (JCM 2151) at approximately 1×10^8CFU/mL was added to this sample solution, stirred, and then cultured at 37° C. under an aerobic condition for 24 hours. The antimicrobial effect was visually determined, and compared with test plots in which the microorganism had not been added. The test plot in which no turbidity due to growth of the microorganism was observed was determined as the test plot having the antimicrobial effect, and the lowest concentration required for inhibiting the growth of the microorganism (hereinafter referred to as a “growth inhibition minimum concentration”) was measured. As a Comparative Example, the growth inhibition minimum concentration of 4-isopropyl-3-methylphenol known as the antimicrobial agent having a broad antimicrobial spectrum was measured in the same way as in the above. The growth inhibition minimum concentrations of ricinoleic acid monoglyceride and diglycerine ricinoleic acid monoester of the present invention (synthesized in “1. Synthesis Example of ricinoleic acid monoglyceride” and “2. Synthesis Example of diglycerine ricinoleic acid monoester,” respectively) for the 9 indicator bacterial species shown in Table 2 were measured in the same way as in “3. Antimicrobial test” described above.

[2] = tested on: Staphylococcus aureus (JCM 2151); assay: as above; type: cell-based; details: S. aureus(JCM2151); for MIC: Staphylococcus aureus, read-out: minimum inhibitory concentration
Description: as §1

S. mutans(JCM5175) = assay: as above; type: cell-based, Streptococcus mutans; details: for minimum inhibitory concentration: Table 2
Description: as §1

P. gingivalis(JCM8525) = assay: as above; type: cell-based, Porphyromonas gingivalis; details: Table 2
Description: as §1

S. epidermidis(JCM2414) = assay: as above; type: cell-based, Staphylococcus epidemidis; details: for minimum inhibitory concentration: Table 2
Description: as §1

B. subtile(JCM2151) = assay: as above; type: cell-based, Bacillus subtilis; details: Table 2
Description: as §1

B. cereus(JCM2152) = assay: as above; type: cell-based, Bacillus cereus; details: for minimum inhibitory concentration: Table 2
Description: as §1

[3] = tested on: L. monocytogenes(JCM7671); assay: as above; type: cell-based, Listeria monocytogenes; details: for minimum inhibitory concentration: Table 2
Description: as §1

E. coli(JCM1649) = assay: as above; type: cell-based, Escherichia coli; details: for antimicrobial activity against Escherichia coli: statement in words from Table 2
Description: as §1

[4] = tested on: Propionibacterium acnes (JCM 6425); assay: Antimicrobial test, growth inhibition minimum concentration (anaerobic); type: cell-based; details: Table 1, P. acnes(JCM6425), 37° C., 48 hours
Description: 0.5 mL of the previously sterilized medium (brand name: Brain Heart Infusion Liquid Medium supplied by Nihon Pharmaceutical Co., Ltd.) was added to a 96-well deep type microplate, and 0.5 mL of ricinoleic acid monoglyceride or diglycerine ricinoleic acid monoester of the present invention (synthesized in “1. Synthesis Example of ricinoleic acid monoglyceride” and “2. Synthesis Example of diglycerine ricinoleic acid monoester,” respectively) was added thereto and serially prepared so that the final concentration in the medium was 3 ppm, 6 ppm, 12 ppm, 25 ppm, 50 ppm, 100 ppm, 200 ppm and 400 ppm. 0.1 mL of a cultured bacterial medium of Propionibacterium acnes (JCM 6425) at approximately 1×10^8CFU/mL was added to this sample solution, and cultured at 37° C. under an anaerobic condition using a deoxidizer for 48 hours. The antimicrobial effect was visually determined, and the growth inhibition minimum concentration was measured. As a Comparative Example, the growth inhibition minimum concentration of 4-isopropyl-3-methylphenol known as the antimicrobial agent having a broad antimicrobial spectrum was measured in the same way as in the above.

[5] = tested on: Staphylococcus aureus (JCM 2151); assay: Microbicidal test for Staphylococcus aureus; type: cell-based; details: FIG. 1; for retention time for reducing the number of bacteria to 1/1000 or less: 200 ppm sample in 0.2 M phosphate buffer (pH7.0), aerobic
Description: Ricinoleic acid monoglyceride synthesized in “1. Synthesis Example of ricinoleic acid monoglyceride” was added to a 0.2 M phosphate buffer (pH7.0) to prepare a 200 ppm sample. 0.1 mL of Staphylococcus aureus (JCM 2151) at approximately 1×10^8CFU/mL was added to 5 mL of the sample. While being kept under the aerobic condition, the bacterial sample was taken at 0, 5, 10, 30, 60 and 120 minutes after the addition, and the number of survival bacteria in the sample was counted at each retention time. Specifically, using a Brain Heart Infusion agar medium, the sample was serially diluted, cultured using a flat plate smear method at 37° C. for 48 hours, and then the number of bacteria was counted. As a comparative control, 4-isopropyl-3-methylphenol was simultaneously evaluated in the same way as in the above.

[6] = tested on: Propionibacterium acnes (JCM 6425); assay: Microbicidal test for Propionibacterium acnes; type: cell-based; details: FIG. 2; for retention time for reducing the number of bacteria to 1/100 or less: 200 ppm sample in 0.2 M phosphate buffer (pH7.0), anaerobic
Description: Ricinoleic acid monoglyceride synthesized in “1. Synthesis Example of ricinoleic acid monoglyceride” was added to a 0.2 M phosphate buffer (pH7.0) to prepare a 200 ppm sample. 0.1 mL of Propionibacterium acnes (JCM 6425) at approximately 1×10^8CFU/mL was added to 5 mL of the sample. While being kept under the anaerobic condition, the bacterial sample was taken at 0, 5, 10, 30, 60 and 120 minutes after the addition, and the number of survival bacteria in the sample was counted at each retention time. Specifically, using a GAM agar medium, the sample was serially diluted, cultured using the flat plate smear method at 37° C. under the anaerobic condition for 4 days, and then the number of bacteria was counted. As the comparative control, 4-isopropyl-3-methylphenol was simultaneously evaluated in the same way as in the above.

[7] = Compounding property in external preparations for skin; type: physicochemical
Description: Hyaluronic acid, ethanol, glycerine and ricinoleic acid monoglyceride were mixed, and then purified water was added to obtain a skin lotion.
Squalane, jojoba oil, bees wax and sorbitan sesquioleate were mixed, heated to 70° C. and dissolved (this was a mixture A). On the other hand, xanthan gum, 1,3-butylene glycol, ethanol and ricinoleic acid monoglyceride were mixed at room temperature (this was a mixture B). Subsequently, the mixture A and the mixture B were mixed, heated to 60° C., and added little by little to the purified water in which the N-palm oil fatty acid acyl L-arginine ethyl-DL-pyrrolidone carboxylate salt had been added, and vigorously stirring to emulsify to obtain a milky lotion.
Squalane, stearic acid, bees wax, stearyl alcohol and ricinoleic acid monoglyceride were mixed, heated to 70° C. and dissolved. The N-palm oil fatty acid acyl L-arginine ethyl-DL-pyrrolidone carboxylate salt and the purified water were added little by little to these heated and dissolved oil-based ingredients, and these were stirred well to obtain a cream.

[8] = Table 1, 37° C., aerobic, 24 hours

| Structure (SMILES) | minimum inhibitory concentration ([1]; Table 2) | minimum inhibitory concentration ([2]; Table 2) | minimum inhibitory concentration (S. mutans(JCM5175)) | minimum inhibitory concentration (P. gingivalis(JCM8525)) | minimum inhibitory concentration (S. epidermidis(JCM2414)) | minimum inhibitory concentration (B. subtile(JCM2151)) | minimum inhibitory concentration (B. cereus(JCM2152)) | minimum inhibitory concentration [3] | minimum inhibitory concentration (E. coli(JCM1649); Table 2, E. coli(JCM1649)) | other results |
| --- | --- | --- | --- | --- | --- | --- | --- | --- | --- | --- |
| CCCCCCCCCCCC(=O)OCC(O)CO (stereo not drawn) [lauric acid monoglyceride] | 100 ppm | 50 ppm | 25 ppm | 13 ppm | 25 ppm | 25 ppm | 25 ppm | 25 ppm | >400 ppm |  |
| CCCCCC[C@@H](O)C/C=C\CCCCCCCC(=O)OCC(O)CO (stereo partly drawn) [ricinoleic acid monoglyceride] | 25 ppm | 25 ppm | 25 ppm | 6 ppm | 25 ppm | 25 ppm | 12.5 ppm | 25 ppm | >400 ppm | minimum inhibitory concentration [1, 8]: 25 ppm; minimum inhibitory concentration [2, 8]: 25 ppm; minimum inhibitory concentration [4]: 50 ppm; antimicrobial activity against Escherichia coli (E. coli(JCM1649)): did not exhibit antimicrobial activity; retention time for reducing the number of bacteria to 1/1000 or less [5]: ≤ 10 min; retention time for reducing the number of bacteria to 1/100 or less [6]: ≤ 5 min; compounding property: mixing with the other ingredients ([7]; cream, 2.0% by weight): mixed very well; blending property: mixing with the other ingredients ([7]; milky lotion, 1.0% by weight): immediately mixed; compounding property: mixing with the other ingredients ([7]; skin lotion, 0.5% by weight): easily mixed |
| Cc1cc(O)ccc1C(C)C [4-isopropyl-3-methyl phenol, 4-isopropyl-3-methylphenol] |  |  |  |  |  |  |  |  |  | MIC ([1]; Corynebacterium xerosis, Table 1, 37° C., aerobic, 24 hours, read-out: minimum inhibitory concentration): 200 µg/mL (≈ 1330 µM); MIC [2, 8]: 200 µg/mL (≈ 1330 µM); MIC ([2]; Table 2): 200 µg/mL (≈ 1330 µM); MIC ([4]; Cutibacterium acnes, read-out: minimum inhibitory concentration): 200 µg/mL (≈ 1330 µM); MIC (S. mutans(JCM5175); Streptococcus mutans, Table 2, read-out: minimum inhibitory concentration): 200 µg/mL (≈ 1330 µM); MIC (S. epidermidis(JCM2414); Staphylococcus epidermidis, Table 2, read-out: minimum inhibitory concentration): 200 µg/mL (≈ 1330 µM); MIC (B. cereus(JCM2152); Bacillus cereus, Table 2, read-out: minimum inhibitory concentration): 200 µg/mL (≈ 1330 µM); MIC ([3]; Listeria monocytogenes, Table 2, read-out: minimum inhibitory concentration): 200 µg/mL (≈ 1330 µM); MIC (E. coli(JCM1649); Escherichia coli, Table 2, E. coli(JCM1649), read-out: minimum inhibitory concentration): 400 µg/mL (≈ 2660 µM); retention time for reducing the number of bacteria to 1/1000 or less [5]: 30 min; microbicidal action for 10 minutes ([5]; 200 ppm, retention time 10 minutes): weak; retention time for reducing the number of bacteria to 1/100 or less [6]: 10 min; microbicidal action for 5 minutes ([6]; 200 ppm, retention time 5 minutes): weak |
| CCCCCCCCCCCC(=O)OCC(O)COCC(O)CO (stereo not drawn) [diglycerin lauric acid monoester] | 200 ppm | 50 ppm | 50 ppm |  | 100 ppm | 100 ppm | 100 ppm | 200 ppm | >400 ppm |  |
| CCCCCCCCCCCCCC(=O)OCC(O)CO (stereo not drawn) [myristic acid monoglyceride] | 400 ppm | 400 ppm | 100 ppm | 50 ppm | >400 ppm | >400 ppm | 400 ppm | 200 ppm | >400 ppm |  |
| CCCCCCCCCCCCCC(=O)OCC(O)COCC(O)CO (stereo not drawn) [diglycerin myristic acid monoester] | 100 ppm | 50 ppm | 50 ppm |  | >400 ppm | 25 ppm |  |  | >400 ppm |  |
| CCCCCCC(O)CC=CCCCCCCCC(=O)OCC(O)COCC(O)CO (stereo not drawn) [diglycerin ricinoleic acid monoester, diglycerine ricinoleic acid monoester] | 25 ppm | 50 ppm | 50 ppm |  | 50 ppm | 50 ppm | 50 ppm | 50 ppm | >400 ppm | minimum inhibitory concentration [1, 8]: 50 ppm; minimum inhibitory concentration [2, 8]: 50 ppm; minimum inhibitory concentration [4]: 100 ppm; antimicrobial activity against Escherichia coli (E. coli(JCM1649)): did not exhibit antimicrobial activity |
